Laboratory results taken from patent US20250032488A1, “METHODS OF TREATMENT USING LOU064” (NOVARTIS AG, priority 2021, published 2025).
Like-named read-outs stand apart in the source and are kept apart here.

Tests used:
[1] = molecular target: T1, BTK (Homo sapiens, UniProt Q06187); assay: Translational PK/PD model: simulated BTK occupancy in human spleen/tissues; settings: from prediction model of spleen BTK occupancy and HED
T1 construct: simulate BTK occupancy in human spleen/tissues across a range of doses; from tissue; host or cells: human spleen/tissues (simulated, not sampled)
Excerpt: The purpose of this analysis was to characterize the pharmacokinetics (PK) of LOU064 in healthy volunteers and to use a previously developed, translational target occupancy model to simulate BTK occupancy in human spleen/tissues across a range of doses and dosing regimen (B.I.D vs QD).
Pharmacokinetic data from a Phase I clinical study reported by Kaul et al. (2021) were used in the current analysis, including 102 patients.
A translational target occupancy model to simulate BTK occupancy in spleen/tissues was developed using a two-step approach.
In a first step, a population PK model was established to describe LOU064 PK data from Phase I clinical study reported by Kaul et al. (2021). In a second step, the parameter estimates from the population PK model were used in the BTK occupancy model to predict BTK occupancy in blood and spleen/tissues. Ultimately the BTK occupancy model was used to predict the BTK occupancy in spleen/tissues for different dosing regimens (QD, B.I.D) at different doses.

[2] = system: FccR1 mediated basophil activation; settings: cited from earlier work
[3] = molecular target: T2, BTK (Mus musculus, UniProt P35991); assay: BTK occupancy in spleen, PCA study; format: in vivo, mice; settings: 2.5 hours after second oral dose, read-out: BTK occupancy in spleen relative to vehicle controls
T2 construct: each spleen was crushed and lysed in a GentleMACS; from tissue; host or cells: mouse spleen (BALB/c, C57Bl6) and lung (C57Bl6)
Experimental: The levels of BTK occupancy after dosing of LOU064 was determined in separate ELISAs for total BTK protein and for bound BTK (=free BTK).
Covalent binding of compounds to BTK was determined with immunoassays for free BTK (i.e., not covalently occupied by compound) and total BTK protein. For free BTK measurements, samples were incubated with a biotinylated covalent BTK probe (Pulz R et al, ACS Med. Chem. Lett. 2019, 10, 1467-1472) then samples were added to streptavidin ELISA plates to allow binding of probe-bound BTK. The binding of the probe to BTK is mutually exclusive with compound binding to BTK. Plate-bound BTK was detected with an anti-BTK antibody (D3H5, Cell Signaling Technology). For total BTK measurements, an ELISA plate was coated with D3H5 anti-BTK to capture total BTK. An anti-BTK antibody (no. 53, BD Biosciences) directed to a different epitope was then used to detect captured BTK. The respective free BTK levels for each sample were normalized to the total BTK level in the same sample, and these ratios were expressed as percentage of the vehicle control samples. […]
The relative BTK occupancy was calculated as the ratio of free BTK (signal of bound BTK) to total BTK for each sample: Ri=free BTK/total BTK. The individual Ri values were then normalized to the vehicle group and expressed as percent occupancy: (average of Ri vehicle group-Ri)/(average of Ri vehicle group)*100%

[4] = system: human primary skin-derived mast cells; assay: Histamine release from skin-derived human mast cells; format: cell-based; settings: Mast cell, n=2 donors
Experimental: Rationale and method: Skin tissue was used as a source of primary human tissue mast cells. Surgical skin discard samples were provided under informed consent and collected by the University Hospital Basel in accordance with the Swiss Human Research Act and approval of the responsible ethic committee (Ethikkommission Nordwest und Zentralschweiz). Skin tissue was dissociated and intact mast cells were prepared according to the protocol of Kulka and Metcalfe (Kulka et al. 2010, current protocols in Immunology; SUPPL. 90:1-11). The isolated mast cells were characterized phenotypically and used for a degranulation assay as described above ((Neuberger, M.S. et al. (1985), Nature 314 (6008), pp 268-70. doi: 10.1038/314268a0). The mast cells were sensitized with JW8 IgE antibody and then pre-incubated with serial compound dilutions for 30 minutes at 37° C. Then degranulation was triggered by adding haptenized NIP-BSA to crosslink the FcERI. After 30 minutes, supernatants were collected and analyzed for histamine with an HTRF-based immunoassay (Cisbio Bioassays).

[5] = system: C57BI6 mice; assay: Reverse passive Arthus (RPA) reaction in mouse skin: skin swelling; format: in vivo; settings: for Inhibition of the Arthus reaction (skin swelling): dosed 2 hours prior to induction, read at 3 hours
Experimental: The effect of a single dose of LOU064 was tested in the acute mouse reverse passive Arthus (RPA) model to assess its effect on a dermal anaphylaxis reaction triggered by IgG immune complexes and mediated by FcGRIIl on mast cell.
Female C57BI6 mice (Charles River, France), 8-10 weeks of age, were used. The back of the mice was shaved 24 hours prior to the skin injections. This allowed any potential irritation of the skin to resolve. The Arthus reaction was triggered two hours after compound dosing in the dose-response study or at the timepoints noted in the time-course study. To elicit the Arthus reaction, 50 μl of PBS (control site) or polyclonal rabbit anti-ovalbumin IgG at a concentration of 30 μg in PBS (C6534, Sigma) was injected i.d. into the dorsal skin. The intradermal injection was followed immediately by an i.v. injection of 200 μl ovalbumin (20 mg/kg) in saline (05450 Fluka). Three hours after the injection of the ovalbumin the mice were killed, bled for monitoring of the compound concentration and the spleens removed for BTK occupancy measurement. The thickness of the injected control and anti-ovalbumin IgG skin sites was measured using a digital caliper, and the thickness of the anti-ovalbumin IgG injected sites minus the saline control sites were then calculated for the mice in all treatment groups.

T1 sequence (Q06187 whole entry): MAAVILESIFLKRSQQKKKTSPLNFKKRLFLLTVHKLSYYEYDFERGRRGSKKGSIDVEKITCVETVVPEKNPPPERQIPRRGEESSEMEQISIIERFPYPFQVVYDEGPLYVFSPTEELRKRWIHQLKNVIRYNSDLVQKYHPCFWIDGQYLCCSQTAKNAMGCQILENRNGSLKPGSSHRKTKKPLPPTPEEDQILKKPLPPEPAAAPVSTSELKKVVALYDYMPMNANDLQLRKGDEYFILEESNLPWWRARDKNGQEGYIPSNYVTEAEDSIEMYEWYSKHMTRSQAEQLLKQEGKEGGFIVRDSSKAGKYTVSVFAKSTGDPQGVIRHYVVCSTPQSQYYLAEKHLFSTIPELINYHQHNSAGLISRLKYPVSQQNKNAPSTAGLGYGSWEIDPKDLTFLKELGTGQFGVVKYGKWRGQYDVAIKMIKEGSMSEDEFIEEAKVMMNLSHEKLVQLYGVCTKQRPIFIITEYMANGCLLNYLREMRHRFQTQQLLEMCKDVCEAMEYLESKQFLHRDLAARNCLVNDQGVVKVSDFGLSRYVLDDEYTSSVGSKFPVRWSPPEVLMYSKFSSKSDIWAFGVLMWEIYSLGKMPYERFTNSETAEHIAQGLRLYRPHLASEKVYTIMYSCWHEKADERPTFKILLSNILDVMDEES
T2 sequence (P35991 whole entry): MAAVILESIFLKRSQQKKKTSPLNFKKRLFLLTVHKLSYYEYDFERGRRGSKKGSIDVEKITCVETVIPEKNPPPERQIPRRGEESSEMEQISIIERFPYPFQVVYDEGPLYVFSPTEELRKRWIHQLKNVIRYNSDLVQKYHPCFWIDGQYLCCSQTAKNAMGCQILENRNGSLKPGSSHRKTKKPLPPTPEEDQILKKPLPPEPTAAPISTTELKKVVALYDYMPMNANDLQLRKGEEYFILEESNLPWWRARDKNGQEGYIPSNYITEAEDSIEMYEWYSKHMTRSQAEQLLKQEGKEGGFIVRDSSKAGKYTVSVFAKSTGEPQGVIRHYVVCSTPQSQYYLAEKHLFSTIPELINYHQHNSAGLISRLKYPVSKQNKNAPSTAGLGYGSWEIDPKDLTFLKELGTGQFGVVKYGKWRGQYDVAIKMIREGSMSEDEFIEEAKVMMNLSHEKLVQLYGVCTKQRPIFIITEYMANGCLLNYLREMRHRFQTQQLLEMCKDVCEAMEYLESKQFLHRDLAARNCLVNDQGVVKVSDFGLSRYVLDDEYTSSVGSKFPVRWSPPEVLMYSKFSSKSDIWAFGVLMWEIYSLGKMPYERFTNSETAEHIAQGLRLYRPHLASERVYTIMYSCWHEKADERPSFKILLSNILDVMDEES

For C=CC(=O)N(C)CCOc1c(N)ncnc1-c1cc(F)cc(NC(=O)c2ccc(C3CC3)cc2F)c1C [LOU064, N-(3-(6-amino-5-(2-(N-methylacrylamido)ethoxy)pyrimidin-4-yl)-5-fluoro-2-methylphenyl)-4-cyclopropyl-2-fluorobenzamide], the “Minimal human effective dose” value [1] is given as 25 mg b.i.d, the “Trough level inhibition of CD63” value ([2]; MAD, 10 mg q.d., last day of dosing) is given as 80% and the “Inhibition of CD203c+ basophils” value ([2]; MAD, 200 mg b.i.d) is given as 67%. The “Inhibition of CD203c+ basophils” value ([2]; MAD, 400 mg q.d.) was 63%, the “Inhibition of blood basophil activation measured by CD63 expression” value ([2]; MAD, daily dose greater than or equal to 50 mg, day 1-12 and several days beyond) was “full inhibition” and the “Trough inhibition of CD63” value ([2]; MAD, greater than or equal to 100 mg q.d., last day of dosing) was “greater than 97%”. The “Inhibition of CD203c+ basophil activation marker” value ([2]; SAD, 200 mg cohort, at 8h) was “up to 79.4%”, the “Inhibition of basophil activation measured by CD63” value ([2]; SAD, doses of 60 mg) was greater than 89% and the “Inhibition of basophil activation measured by CD63” value ([2]; SAD, higher doses, 24 h post dose) was roughly 100%. The receptor occupancy at 3 mg/kg [3] was 89.1%, the IC50 [4] was 0.0165 µM and the “Inhibition of skin swelling (time-course study)” value ([5]; 30 mg/kg p.o., Arthus reaction elicited 2 hours post dosing) was 65.7%. For the same compound, the “Inhibition of the Arthus reaction (skin swelling)” value ([5]; 30 mg/kg single p.o.) was 73%, the “Inhibition of the Arthus reaction (skin swelling)” value ([5]; 100 mg/kg single p.o.) was 61.2% and the “Timepoint at which pharmacologic effect in the skin returned to vehicle levels” value ([5]; single dose 30 mg/kg p.o.) was no more than 45 hours.
